Test results from patent US11723890B2, “Methods of treatment using an mTORC1 modulator” (Navitor Pharmaceuticals, Inc., priority 2019, dated 2023).
Read-outs that look alike come from different tables or passages of the source. Marks after values point to notes of the source that are not given here.

How the values were obtained:
Assay type in all cases: in vivo, human
[1] = system: CSF neurotransmitter metabolites; assay: Example 2: CSF neurotransmitter metabolomics after a single dose; conditions: healthy males; for 1-methyl-4-imidazoleacetate, CSF, ratio relative to baseline / Carboxyethyl-GABA, CSF, ratio relative to baseline / Homovanillate (HVA), CSF, ratio relative to baseline / Hydroxyindoleacetic acid (HIAA), CSF, ratio relative to baseline: single 2400 mg, n = 12
Text: (§1) Exploratory Objective(s): The exploratory objectives of this study were as follows using CSF and plasma samples collected over the same time frame as the PK samples: • conducted unbiased metabolomic analysis using validated methods as described: https://www.metabolon.com/what-we-do/our-technology. • conducted unbiased proteomic analysis using validated methods as described: https://www.biognosys.com/technology. Study Endpoints:
This study was a Phase 1, double-blind, placebo-controlled, single-dose study to evaluate the PK, metabolomic, and proteomic profiles of compound A in plasma and CSF in healthy male subjects between the ages of 18 and 55 years. […] Once eligibility criteria were met and the ICF had been signed, subjects were admitted to the CRU on Day-1. On Day 1, intradural and venous catheters were inserted and subjects were randomly assigned to double-blind treatment with a single oral 2400 mg dose of compound A or placebo. The catheter insertion site was assessed on regular basis for early signs of local infection or CSF leakage. Time-matched CSF and blood samples were then collected for 36 hours, after which, the intradural and venous catheters were removed. See FIG. 7 for the study flow chart.
(§2) Pharmacokinetic, Metabolomic, and Proteomic Variables: Blood and CSF samples for the PK, metabolomics, and proteomic analysis of compound A were collected at various time points and were processed and analyzed by a validated method for determining concentrations of compound A.
Low CSF concentrations of HVA have been reported to be a marker of depressive symptoms. […] Values represent the ratio of metabolite concentrations for each time point relative to baseline. An increase from baseline is indicated with a single asterisk (*).

[2] = Example 3: plasma pharmacokinetics of two sequential doses; conditions: for Tmax / AUC / AUC(0-t) / Cmax / half-life: male, human, 2400 mg
Protocol: Up to approximately 24 healthy male volunteers were randomly assigned (1:1) to double-blind treatment with either compound A 2400 mg or placebo. Each subject received one dose of either 2400 mg compound A or placebo on Day 1 and a second dose of the same treatment on Day 3.
The initial dose of double-blind treatment was administered between 7:00 AM and 10:00 AM on Day 1. The second (Day 3) dose was given 48 hours ±30 minutes following the first (Day 1) dose. Predose assessments were performed up to 120 minutes prior to dosing on Day 1 and Day 3, except for the predose dECG, which was performed within 30 minutes prior to dosing on both Day 1 and Day 3, the predose qEEG and ERP, which was performed within 60 minutes prior to dosing on Day 1 and Day 3, and the predose PK blood draw, which was performed within 15 minutes prior to dosing on Day 3.
Pharmacodynamics were assessed via qEEG and event-related potential (ERP). Frequent PK sampling was included in the study to evaluate the PK of two doses of compound A given approximately 48 hours apart. A PK/PD model was developed that measures qEEG and ERP changes as a function of plasma concentration of compound A as well as determines whether there are any PK/PD differences between Dose 1 and Dose 2 effects.
Subjects were required to refrain from eating or drinking from 2 hours prior to dose administration until two hours after dose administration.

[3] = system: BDNF and BDNF receptor (NTRK2); assay: Example 2: CSF BDNF and BDNF receptor (NTRK2) fragment levels; conditions: healthy males; single oral 2400 mg; FIGS. 9 and 10
Text: as §1, §2

[4] = healthy males, 2400 mg oral, Day 1, N 11
[5] = healthy males, 2400 mg oral, second dose, Day 3, N 11

CC(C)(C[C@H](N)C(=O)O)C(F)F [Compound A, (S)-2-amino-5,5-difluoro-4,4-dimethylpentanoic acid]
onset of effect on key neurotransmitter turnover (GABA, histamine, serotonin, dopamine) ([1]; CSF, single oral 2400 mg): within two hours of treatment
duration of effect on key neurotransmitter turnover ([1]; CSF, single oral 2400 mg, post-dose): 36 h
1-methyl-4-imidazoleacetate, CSF, ratio relative to baseline ([1]; 1 h post-dose): 1.08
Carboxyethyl-GABA, CSF, ratio relative to baseline ([1]; 1 h post-dose): 1.12
Homovanillate (HVA), CSF, ratio relative to baseline ([1]; 1 h post-dose): 1.08
Hydroxyindoleacetic acid (HIAA), CSF, ratio relative to baseline ([1]; 1 h post-dose): 1.09
1-methyl-4-imidazoleacetate, CSF, ratio relative to baseline ([1]; 2 h post-dose): 1.35*
Carboxyethyl-GABA, CSF, ratio relative to baseline ([1]; 2 h post-dose): 1.29*
Homovanillate (HVA), CSF, ratio relative to baseline ([1]; 2 h post-dose): 1.41*
Hydroxyindoleacetic acid (HIAA), CSF, ratio relative to baseline ([1]; 2 h post-dose): 1.28*
1-methyl-4-imidazoleacetate, CSF, ratio relative to baseline ([1]; 4 h post-dose): 1.52*
Carboxyethyl-GABA, CSF, ratio relative to baseline ([1]; 4 h post-dose): 1.38*
Homovanillate (HVA), CSF, ratio relative to baseline ([1]; 4 h post-dose): 1.56*
Hydroxyindoleacetic acid (HIAA), CSF, ratio relative to baseline ([1]; 4 h post-dose): 1.1*
1-methyl-4-imidazoleacetate, CSF, ratio relative to baseline ([1]; 8 h post-dose): 1.47*
Carboxyethyl-GABA, CSF, ratio relative to baseline ([1]; 8 h post-dose): 1.38*
Homovanillate (HVA), CSF, ratio relative to baseline ([1]; 8 h post-dose): 1.3*
Hydroxyindoleacetic acid (HIAA), CSF, ratio relative to baseline ([1]; 8 h post-dose): 1.22
1-methyl-4-imidazoleacetate, CSF, ratio relative to baseline ([1]; 12 h post-dose): 1.56*
Carboxyethyl-GABA, CSF, ratio relative to baseline ([1]; 12 h post-dose): 1.4*
Homovanillate (HVA), CSF, ratio relative to baseline ([1]; 12 h post-dose): 1.46*
Hydroxyindoleacetic acid (HIAA), CSF, ratio relative to baseline ([1]; 12 h post-dose): 1.21
1-methyl-4-imidazoleacetate, CSF, ratio relative to baseline ([1]; 24 h post-dose): 1.33*
Carboxyethyl-GABA, CSF, ratio relative to baseline ([1]; 24 h post-dose): 1.24*
Homovanillate (HVA), CSF, ratio relative to baseline ([1]; 24 h post-dose): 1.34*
Hydroxyindoleacetic acid (HIAA), CSF, ratio relative to baseline ([1]; 24 h post-dose): 1.21*
1-methyl-4-imidazoleacetate, CSF, ratio relative to baseline ([1]; 36 h post-dose): 1.75*
Carboxyethyl-GABA, CSF, ratio relative to baseline ([1]; 36 h post-dose): 1.22*
Homovanillate (HVA), CSF, ratio relative to baseline ([1]; 36 h post-dose): 1.41*
Hydroxyindoleacetic acid (HIAA), CSF, ratio relative to baseline ([1]; 36 h post-dose): 1.28*
accumulation between Day 1 and Day 3 ([2]; 2400 mg oral 48 hours apart): negligible accumulation
difference in geometric mean exposure (Cmax, AUC(0-24), AUC(0-48)) between Day 1 and Day 3 ([2]; 2400 mg oral on Days 1 and 3): ≤ 5%
time of peak concentration for the mean profile ([2]; 2400 mg oral, day 1, post-dose): 1 h
time of highest concentration for the mean profile ([2]; 2400 mg oral, day 3, post-dose): 0.5 h
mean plasma concentration versus time profiles on days 1 and 3 ([2]; FIG. 13): nearly superimposable
AUC(0-24), Max [2, 4]: 416,000 h*ng/mL
AUC(0-24), Min [2, 4]: 298,000 h*ng/mL
AUC(0-48), Max [2, 4]: 525,000 h*ng/mL
AUC(0-48), Min [2, 4]: 357,000 h*ng/mL
AUClast, Max [2, 4]: 481,000 h*ng/mL
AUClast, Min [2, 4]: 298,000 h*ng/mL
Cmax, Max [2, 4]: 57,700 ng/mL
Cmax, Min [2, 4]: 23,300 ng/mL
T1/2, Max [2, 4]: 15.2 h
T1/2, Min [2, 4]: 9.20 h
AUC(0-24), Max [2, 5]: 449,000 h*ng/mL
AUC(0-24), Min [2, 5]: 294,000 h*ng/mL
AUC(0-48), Max [2, 5]: 584,000 h*ng/mL
AUC(0-48), Min [2, 5]: 353,000 h*ng/mL
AUClast, Max [2, 5]: 632,000 h*ng/mL
AUClast, Min [2, 5]: 369,000 h*ng/mL
Cmax, Max [2, 5]: 52,300 ng/mL
Cmax, Min [2, 5]: 35,700 ng/mL
T1/2, Max [2, 5]: 21.1 h
T1/2, Min [2, 5]: 10.9 h
Tmax ([2]; oral, all subjects, both dosing days (Days 1 and 3), read-out: individual Tmax values): 0.5 to 1 h
AUC ([2]; po, healthy males, 2400 mg oral, Day 1, N 11, read-out: AUC(0-24), Geometric mean): 355 µg·h/mL
AUC ([2]; po, healthy males, 2400 mg oral, Day 1, N 11, read-out: AUC(0-24), Mean): 358 µg·h/mL
AUC ([2]; po, healthy males, 2400 mg oral, Day 1, N 11, read-out: AUC(0-24), Median): 366 µg·h/mL
AUC ([2]; po, healthy males, 2400 mg oral, Day 1, N 11, read-out: AUC(0-48), Geometric mean): 438 µg·h/mL
AUC ([2]; po, healthy males, 2400 mg oral, Day 1, N 11, read-out: AUC(0-48), Mean): 442 µg·h/mL
AUC ([2]; po, healthy males, 2400 mg oral, Day 1, N 11, read-out: AUC(0-48), Median): 453 µg·h/mL
AUC(0-t) ([2]; po, healthy males, 2400 mg oral, Day 1, N 11, read-out: AUClast, Geometric mean): 405 µg·h/mL
AUC(0-t) ([2]; po, healthy males, 2400 mg oral, Day 1, N 11, read-out: AUClast, Mean): 409 µg·h/mL
AUC(0-t) ([2]; po, healthy males, 2400 mg oral, Day 1, N 11, read-out: AUClast, Median): 422 µg·h/mL
Cmax ([2]; po, healthy males, 2400 mg oral, Day 1, N 11, read-out: Cmax, Geometric mean): 43900 ng/mL
Cmax ([2]; po, healthy males, 2400 mg oral, Day 1, N 11, read-out: Cmax, Mean): 45100 ng/mL
Cmax ([2]; po, healthy males, 2400 mg oral, Day 1, N 11, read-out: Cmax, Median): 47000 ng/mL
half-life ([2]; po, healthy males, 2400 mg oral, Day 1, N 11, read-out: T1/2, Geometric mean (converted)): 12.1 h
half-life ([2]; po, healthy males, 2400 mg oral, Day 1, N 11, read-out: T1/2, Mean (converted)): 12.2 h
half-life ([2]; po, healthy males, 2400 mg oral, Day 1, N 11, read-out: T1/2, Median (converted)): 12 h
Tmax ([2]; po, healthy males, 2400 mg oral, Day 1, N 11, read-out: Tmax, Median): 1 h
AUC ([2]; po, healthy males, 2400 mg oral, second dose, Day 3, N 11, read-out: AUC(0-24), Geometric mean): 350 µg·h/mL
AUC ([2]; po, healthy males, 2400 mg oral, second dose, Day 3, N 11, read-out: AUC(0-24), Mean): 353 µg·h/mL
AUC ([2]; po, healthy males, 2400 mg oral, second dose, Day 3, N 11, read-out: AUC(0-24), Median): 340 µg·h/mL
AUC ([2]; po, healthy males, 2400 mg oral, second dose, Day 3, N 11, read-out: AUC(0-48), Geometric mean): 430 µg·h/mL
AUC ([2]; po, healthy males, 2400 mg oral, second dose, Day 3, N 11, read-out: AUC(0-48), Mean): 436 µg·h/mL
AUC ([2]; po, healthy males, 2400 mg oral, second dose, Day 3, N 11, read-out: AUC(0-48), Median): 428 µg·h/mL
AUC(0-t) ([2]; po, healthy males, 2400 mg oral, second dose, Day 3, N 11, read-out: AUClast, Geometric mean): 455 µg·h/mL
AUC(0-t) ([2]; po, healthy males, 2400 mg oral, second dose, Day 3, N 11, read-out: AUClast, Mean): 462 µg·h/mL
AUC(0-t) ([2]; po, healthy males, 2400 mg oral, second dose, Day 3, N 11, read-out: AUClast, Median): 460 µg·h/mL
Cmax ([2]; po, healthy males, 2400 mg oral, second dose, Day 3, N 11, read-out: Cmax, Geometric mean): 45300 ng/mL
Cmax ([2]; po, healthy males, 2400 mg oral, second dose, Day 3, N 11, read-out: Cmax, Mean): 45600 ng/mL
Cmax ([2]; po, healthy males, 2400 mg oral, second dose, Day 3, N 11, read-out: Cmax, Median): 47400 ng/mL
half-life ([2]; po, healthy males, 2400 mg oral, second dose, Day 3, N 11, read-out: T1/2, Geometric mean (converted)): 15.3 h
half-life ([2]; po, healthy males, 2400 mg oral, second dose, Day 3, N 11, read-out: T1/2, Mean (converted)): 15.6 h
half-life ([2]; po, healthy males, 2400 mg oral, second dose, Day 3, N 11, read-out: T1/2, Median (converted)): 15.6 h
Tmax ([2]; po, healthy males, 2400 mg oral, second dose, Day 3, N 11, read-out: Tmax, Median): 0.5 h
CSF BDNF and BDNF receptor (NTRK2) fragment levels [3]: rapid release of BDNF and receptor degradation
